Source: patent publication US20250128203A1, “MODIFIED REDOX-ACTIVE SORBENTS FOR ELECTROCHEMICAL CARBON DIOXIDE SEPARATION” (The Johns Hopkins University, priority 2023, published 2025)
Converted amounts (≈) assume the structure as drawn. “And” between values parts separate entries of the source, which are not always exact repeats. Equal values may be shown once.

What was measured:
Solubility in DMF = type: physicochemical; conditions: for solubility: organic solvent or mixture
[1] = UV-vis absorption, optical band gap; type: physicochemical; conditions: UV-vis absorption (Kubelka-Munk spectra)
Protocol: UV-vis absorption spectra were recorded on a Thermo Scientific Genesys 10S UV-vis spectrophotometer.

[2] = Cyclic voltammetry of isoindigos in DMF (half-wave redox potentials under N2 or CO2); type: physicochemical; conditions: for E1/2 (IId/IId·−) in N2: Table 1, first electron transfer, N2, DMF; for Experimental 1st half-wave potential in N2: Table 5; for Experimental 1st half-wave potential in N2 / E1/2 in CO2 (first or single): vs. Fc^+/Fc; for E1/2 in N2 (first): first half-wave potential vs. Fc^+/Fc; for E1/2 in N2 (first) / E1/2 in N2 (second): 0.1 M NBu4PF6, N2, 298 K; for E1/2 in N2 (second): second half-wave potential vs. Fc^+/Fc; for E1/2 in CO2 (first or single): 0.1 M NBu4PF6, CO2, 298 K
Protocol: (§1) Electrochemical measurements were conducted using a BioLogic VSP potentiostat (BioLogic Science Instruments). For the cyclic voltammetry measurements, glassy carbon (Ø=3 mm) was used as the working electrode, platinum wire was used as the counter electrode, silver wire was used as the pseudo-reference electrode and ferrocene was used as the internal reference. In a standard cyclic voltammetry measurement, the molecule of interest (2.5 mM) was dissolved in anhydrous DMF with 100 mM NBu4PF6 as the supporting salt. Typical cyclic voltammograms were collected at a scan rate of […]. To study the effects of ionic species on the redox behaviour of the sorbent molecules, 100 mM LiClO4, NaClO4, KClO4, NBu4ClO4, sodium triflate (NaOTf), or sodium bis(trifluoromethanesulfonyl)imide (NaTFSI) was used as the supporting electrolyte salt.

[3] = CO2 binding constant (KCO2) calculated from the shift of the second reduction peak in CV; conditions: for K[CO2] / logK[CO2]: DMF; for ΔEpeak(2): difference between the second reduction peak potentials (IId·−/IId2−) in CO2 and N2
Protocol: as §1
The CO2 binding constant (KCO2) was calculated by Eq 1: […]

[4] = Chronoamperometry: reaction rate constant between isoindigo radical anion and CO2; conditions: isoindigo 5 mM in DMF, 0.1 M NBu4PF6; for kbimolecular: first CO2 binding; for kf (20% CO2): forward rate constant
From the text: In electrochemistry, the Cottrell equation describes the current response (i) when the potential is a step function in time (t):
where i is current, n is the number of electrons transferred per molecule, A is the area of the electrode, C*0 is the bulk concentration of the redox-active isoindigo molecule, D is the diffusion coefficient, and t is time. The expected current for a diffusion limited electrochemical process following an ECE (electron transfer, chemical reaction, electron transfer) mechanism at a plane electrode under diffusion-controlled conditions is:
where n1 and n2 are the number of electrons transferred in the first and second step, respectively, and kf is the forward reaction rate constant of the chemical reaction. Here, to calculate kf after the first electron transfer, n2 and n1 are set to 1. Eq 3 then becomes:
The integrated Cottrell equation relates total charge Q with time for chronoamperometry: […]
Then, the constant k can be calculated, here k is assumed constant:
To calculate kf, the constant k is calculated using Eq 5 using potentiostatic measurements. Plugging in Eq 6, and rearranging Eq 4 gives:
The data for determining kf is shown in FIGS. 22 to 25 using 5 mM sorbent molecules in 0.1 M NBu4PF6 DMF electrolyte. The value k was determined using data under N2; kf was obtained under 1 bar 20% CO2 (0.0396 M CO2 in solution).

[5] = Flow-based EMCC prototype, cyclic CO2 capture/release
Protocol: In a typical experiment, the sorbent tank (20 mL scintillation vial with septum cap) was continuously bubbled with CO2 feed gas (balanced by N2) with the flow rate controlled by a mass flow controller (Alicat). For testing under simulated flue gas conditions, a gas mixture of 10% CO2+3% O2 balanced by N2 was used. An infrared-based CO2 sensor (SprintIR-W 100%) was connected at the gas exit to monitor the CO2 concentration continuously. The tank headspace was filled with plastic beads (McMaster-Carr) to limit the mixing time in the headspace. The Fc tank was kept air free. A two-channel peristaltic pump (Masterflex) circulated the sorbent and the Fc electrolyte to a commercial flow cell (Scribner) at a flow rate of 10 mL min^−1. The flow cell utilised graphite plates with 5 cm^2 interdigitated flow fields pressed against two pieces of carbon paper electrodes (Sigracet 28 AA) at each side of the graphite electrodes to distribute the liquid flow. A Nafion™ 115 membrane was sandwiched by two pieces of polypropylene and placed between the carbon paper electrodes. The cell was kept sealed by Kalrez fluoropolymer elastomer gaskets (0.02 inches thick). CO2 capture was conducted in a constant current mode while the release was carried out following a constant current/constant voltage protocol (that is, oxidizing the adduct at a constant current until a specific cut-off voltage followed by a constant voltage hold (the cut-off current for the constant voltage hold was 5% of the value used in the constant current oxidation). The cycling protocols of each experiment are provided in the corresponding figure captions.
For experiments using 6MCIId sorbent, we added 10 mM 6MCIId and 4 mM ferrocenium tetrafluoroboronate (FcBF4) into the CE tank to mitigate sorbent crossover and facilitate the reduction of the oxidised ferrocenium in the counter electrolyte, respectively. For less soluble 55DBIId and 66DBIId, the sorbent was dispersed in DMAc to form a slurry catholyte.

mammalian cells = assay: Cytotoxicity test and cell morphology, different mammalian cells; type: cell-based; parameters: dose or concentration left out as unconfirmed
Protocol: (§2) NIH3T3/GFP fibroblast cell line was kindly provided by Dr. Yun Chen at Johns Hopkins University and cultured in Dulbecco's Modified Eagle's Medium (DMEM; Gibco) supplemented with 10% fetal bovine serum (FBS; Hyclone) and 1% penicillin/streptomycin (Pen/Strep; Gibco). U2OS.EGFP cells were kindly provided by Dr. J Keith Joung at Massachusetts General Hospital and cultured in DMEM supplemented with 10% FBS, 2 mM GlutaMAX (Gibco), and 1% Pen/Strep. MCF10A epithelial cell line was kindly provided by Dr. Konstantinos Konstantopoulos at Johns Hopkins University and cultured in DMEM/F-12 (1:1) supplemented with 5% New Zealand horse serum (Gibco), 20 ng mL^−1 EGF (PeproTech), […] hydrocortisone (Sigma Aldrich), 100 ng mL^−1 cholera toxin (Sigma Aldrich), […] insulin (Gibco), and 1% Pen/Strep. All cells were cultured in a humidified incubator at 5% CO2 and 37° C.
(§3) Cell cytotoxicity was examined by alamarBlue HS Cell Viability Reagent (Invitrogen) according to manufacturer's protocol. Rampersad, 2012; Kumar et al., 2018. […] Absorbance was measured at 570 nm by a SpectraMax microplate reader, with 600 nm as a reference wavelength. The cell viability was calculated by relative absorbance to control groups. […] Cell morphology was monitored throughout the assay and images were acquired with an EVOS cell imaging system (Thermo Fisher).

[6] = system: MCF10A human breast epithelial cells; assay: alamarBlue cytotoxicity assay; type: cell-based; parameters: unit not given here; conditions: 48 h cell culture
Protocol: as §2, §3

[7] = system: U2OS.EGFP human osteosarcoma cells; assay: alamarBlue cytotoxicity assay; type: cell-based; conditions: concentrations up to 100 µg mL^−1, 48 h
Protocol: as §2, §3

[8] = system: NIH3T3/GFP mouse fibroblasts; assay: alamarBlue cytotoxicity assay; type: cell-based; conditions: concentrations up to 100 µg mL^−1, 48 h
Protocol: as §2, §3

## O=C1Nc2ccc(Br)cc2/C1=C1\C(=O)Nc2ccc(Br)cc21 [55DBIId, 5,5′-Dibromoisoindigo]
Solubility in DMF
  solubility: 6.3 mM (≈ 2.65 mg/mL)
[1]
  Optical band gap: 1.99 eV
[2]; 10 vol % water
  CO2 release at approximately −1 V vs. Fc^+/Fc in the presence of water: gets suppressed
[2]
  E1/2 (IId/IId·−) in N2: −1.09 V vs. Fc^+/Fc
  Experimental 1st half-wave potential in N2: −1.09 V
[2]; 2.5 mM in DMF
  E1/2 in N2 (first): −1.09 V and −1.09, V
  E1/2 in N2 (second): −1.61 V
  E1/2 in CO2 (first or single): −1.09 V
[2]; up to 16% CO2 and 20% O2, 2.5 mM in DMF, 0.1 M NBu4PF6
  Electrochemical behaviours in the presence of O2: remained almost unaffected
[3]; 298 K
  K[CO2]: 2.16e+09 M⁻¹
  logK[CO2]: 9.33
[3]; Table 1
  logK[CO2]: 9.33
[3]
  ΔEpeak(2): 0.510 V

## O=C1Nc2cc(Br)ccc2/C1=C1\C(=O)Nc2cc(Br)ccc21 [66DBIId, 6,6′-Dibromoisoindigo]
[4]
  kbimolecular: 18.64 M⁻¹ s⁻¹
  kf (20% CO2): 0.738 s⁻¹
[1]
  Optical band gap: 2.06 eV
[5]; after 11 capture/release cycles over 50+ hours
  Sorbent recovered from the sorbent electrolyte after cycling: 87%
[5]; after 11 capture/release cycles over 50+ hours, 1H NMR
  Sorbent isomerized into cis-isomer after cycling: approximately 24%
[2]
  E1/2 (IId/IId·−) in N2: −1.14 V vs. Fc^+/Fc
  Experimental 1st half-wave potential in N2: −1.14 V
[2]; 2.5 mM in DMF
  E1/2 in N2 (second): −1.67 V
  E1/2 in CO2 (first or single): −1.12 V
[3]; 298 K
  K[CO2]: 38800 M⁻¹
  logK[CO2]: 9.59
[3]; Table 1
  logK[CO2]: 9.59
[3]
  ΔEpeak(2): 0.525 V

## COC(=O)c1ccc2c(c1)NC(=O)/C2=C1/C(=O)Nc2ccccc21 [6MCIId, Methyl isoindigo-6-carboxylate]
Solubility in DMF
  solubility: 515 mM (≈ 165 mg/mL)
[4]
  kbimolecular: 22.45 M⁻¹ s⁻¹
  kf (20% CO2): 0.889 s⁻¹
[1]
  Optical band gap: 2.03 eV
[2]
  E1/2 (IId/IId·−) in N2: −1.12 V vs. Fc^+/Fc
[2]; 2.5 mM in DMF
  E1/2 in N2 (first): −1.12, V
  E1/2 in N2 (second): −1.62 V
  E1/2 in CO2 (first or single): −1.09 V
[3]; 298 K
  K[CO2]: 7.78e+08 M⁻¹
  logK[CO2]: 8.89
[3]; Table 1
  logK[CO2]: 8.89
[3]
  ΔEpeak(2): 0.484 V

## COC(=O)c1ccc2c(c1)NC(=O)/C2=C1/C(=O)Nc2cc(C(=O)OC)ccc21 [66DMCIId, Dimethyl isoindigo-6,6′-dicarboxylate]
Solubility in DMF
  Solubility in DMF: <2.5 mM
  solubility: < 2.5 mM
[1]
  Optical band gap: 2.02 eV
[2]; 2.5 mM in DMF
  E1/2 in N2 (first): −0.97, V
  E1/2 in N2 (second): −1.41 V
  E1/2 in CO2 (first or single): −0.91 V
[2]; under CO2, DMF
  Positive shift of E1/2 under CO2 compared to unmodified IId: 300 mV
[3]; 298 K
  K[CO2]: 1.17e+08 M⁻¹
  logK[CO2]: 8.07
[3]
  ΔEpeak(2): 0.435 V

## COC(=O)C(CO)NC(=O)c1ccc2c(c1)NC(=O)/C2=C1/C(=O)Nc2ccccc21 (stereo not shown) [6AIIdSer, Methyl isoindigo-6-carbonylserinate]
Solubility in DMF
  Solubility in DMF: 830 mM (≈ 338 mg/mL)
[1]
  Optical band gap: 2.04 eV
[2]; 2.5 mM in DMF
  E1/2 in N2 (first): −1.18, V
  E1/2 in N2 (second): −1.60 V
  E1/2 in CO2 (first or single): −1.08 V
Mammalian cells; 0.78 to 100, 48 h
  Biocompatibility compared with unmodified counterpart: much better biocompatibility
Mammalian cells; 50, 48 h culture
  Cell condition in optical microscopic images, compared with IId: cells remained much healthier
[3]; 298 K
  K[CO2]: 2.57e+08 M⁻¹
  logK[CO2]: 8.41
[3]
  ΔEpeak(2): 0.46 V

## O=C1Nc2ccccc2/C1=C1\C(=O)Nc2ccccc21 [IId, Isoindigo]
Solubility in DMF
  solubility: ~230 mM (≈ 60.3 mg/mL)
[1]
  Optical band gap: 2.04 eV
[2]
  E1/2 (IId/IId·−) in N2: −1.29 V vs. Fc^+/Fc
  Experimental 1st half-wave potential in N2: −1.29 V
[2]; 2.5 mM in DMF
  E1/2 in N2 (first): −1.29 V and −1.29, V
  E1/2 in N2 (second): −1.79 V
  E1/2 in CO2 (first or single): −1.21 V
[3]; 298 K
  K[CO2]: 2.19e+09 M⁻¹
  logK[CO2]: 9.34
[3]; Table 1
  logK[CO2]: 9.34
[3]
  ΔEpeak(2): 0.511 V

## COC(=O)C(CO)NC(=O)c1ccc2c(c1)NC(=O)/C2=C1/C(=O)Nc2cc(Br)ccc21 (stereo not shown) [6B6AIIdSer, Methyl 6-bromoisoindigo-6′-carbonylserinate]
Solubility in DMF
  Solubility in DMF: 568 mM (≈ 276 mg/mL)
[1]
  Optical band gap: 2.03 eV
[5]; more than 40 cycles and approximately 200 hours of operation
  Cycling stability: negligible voltage decay
[2]; 2.5 mM in DMF
  E1/2 in N2 (first): −1.11, V
  E1/2 in N2 (second): −1.55 V
  E1/2 in CO2 (first or single): −1.11 V
[3]; 298 K
  K[CO2]: 5.41e+08 M⁻¹
  logK[CO2]: 8.73
[3]
  ΔEpeak(2): 0.475 V

## COC(=O)CNC(=O)c1ccc2c(c1)NC(=O)/C2=C1/C(=O)Nc2ccccc21 [6AIIdGly, Methyl isoindigo-6-carbonylglycinate]
Solubility in DMF
  Solubility in DMF: 606 mM (≈ 229 mg/mL)
[4]
  kbimolecular: 19.85 M⁻¹ s⁻¹
  kf (20% CO2): 0.786 s⁻¹
[1]
  Optical band gap: 2.04 eV
[2]; 2.5 mM in DMF
  E1/2 in N2 (first): −1.17, V
  E1/2 in N2 (second): −1.62 V
  E1/2 in CO2 (first or single): −1.08 V
[3]; 298 K
  K[CO2]: 4.3e+08 M⁻¹
  logK[CO2]: 8.63
[3]
  ΔEpeak(2): 0.469 V

## Methyl isoindigo-6-carbonylserinate [6AIIdSer]
[6]
  LC50 (lethal concentration that causes 50% cell death): 89.4
[7]
  Toxicity: does not display clear toxicity
[8]
  Toxicity: does not display clear toxicity
